In patent publication EP4692091A1, “CA[…], AND PHARMACEUTICAL COMPOSITION, PREPARATION METHOD THEREFOR AND USE THEREOF” (Changchun Genescience Pharmaceutical Co., Ltd., priority 2023, dated 2024) one finds IC50 data, which are given here for 15 compounds.

Assay type in all cases: cell-based
The subject of one assay is MDA-MB-468. As to the kind of experiment: Inhibition of proliferation of MDA-MB-468 cells by test compounds (CellTiter-Glo, 72 h). The note with it: MDA-MB-468, 72 h incubation. The protocol: 3: Test method • (1) Cell plating: first, tumor cells MDA-MB-468 were cultured using a corresponding culture medium, trypsinized, centrifuged, resuspended for counting, adjusted to an appropriate concentration, and then plated on a 384-well plate. • (2) Co-incubation of the compounds and tumor cells: after the cells adhered to the wall, 100 nL of a diluted bioactive substance (test compound) was added to the cell culture plate using ECHO, the final concentration of DMSO in wells of the cell plate was 0.33%, and the incubation was performed in an incubator at 37°C with […] for 72 h. • (3) After the incubation was complete, 30 µL of a CTG reagent (CelltiterGlo kit) was added to each well. The culture was oscillated on a fast oscillator for 2 min, centrifuged at 1,000 rpm for 1 min, and kept away from light at room temperature for 30 min. The chemiluminescence signal value was read using an Envision instrument. • (4) Cell viability detection: IC50 was calculated using GraphPad Prism 8 software, and the IC50 of the compounds was obtained using the following nonlinear fitting formula (see Table 2): • 6. Y=Bottom+(Top-Bottom)/(1+10^((LogIC50-X)*HillSlope)) • 7. […] Table 2 Antiproliferative activity of test compounds on MDA-MB-468

The next assay concerns NCI-N87. As to the kind of experiment: Inhibition of proliferation of NCI-N87 cells by test compounds (CellTiter-Glo, 72 h). The note with it: NCI-N87, 72 h incubation. The method, then: 3: Test method (1) Cell plating: first, tumor cells NCI-N87 were cultured using a corresponding culture medium, trypsinized, centrifuged, resuspended for counting, adjusted to an appropriate concentration, and then plated on a 384-well plate. (2) Co-incubation of the compounds and tumor cells: after the cells adhered to the wall, 100 nL of a diluted bioactive substance (test compound) was added to the cell culture plate using ECHO, the final concentration of DMSO in wells of the cell plate was 0.33%, and the incubation was performed in an incubator at 37°C with […] for 72 h. (3) After the incubation was complete, 30 µL of a CTG reagent (CelltiterGlo kit) was added to each well. The culture was oscillated on a fast oscillator for 2 min, centrifuged at 1,000 rpm for 1 min, and kept away from light at room temperature for 30 min. The chemiluminescence signal value was read using an Envision instrument. (4) Cell viability detection: IC50 was calculated using GraphPad Prism 8 software, and the IC50 of the compounds was obtained using the following nonlinear fitting formula (see Table 3) : 11. Y=Bottom+(Top-Bottom)/(1+10^((LogIC50-X)*HillSlope)) 12. […] Table 3 Antiproliferative activity of test compounds on cells NCI-N87
For orientation: Cellular ATP, detected with luciferase, serves as a proxy for viable cell number.

The test system of a further assay is SK-BR-3. As to the kind of experiment: Inhibition of proliferation of SK-BR-3 cells by compounds (CellTiter-Glo, 72 h). The note with it: SK-BR-3, 72 h incubation. The method, then: 3: Test method (1) Cell plating: first, tumor cells SK-BR-3 were cultured using a corresponding culture medium, trypsinized, centrifuged, resuspended for counting, adjusted to an appropriate concentration, and then plated on a 384-well plate. (2) Co-incubation of the compounds and tumor cells: after the cells adhered to the wall, 100 nL of a diluted bioactive substance (test compound) was added to the cell culture plate using ECHO, the final concentration of DMSO in wells of the cell plate was 0.33%, and the incubation was performed in an incubator at 37°C with 5% CO2 for 72 h. (3) After the incubation was complete, 30 µL of a CTG reagent (CelltiterGlo kit) was added to each well. The culture was oscillated on a fast oscillator for 2 min, centrifuged at 1,000 rpm for 1 min, and kept away from light at room temperature for 30 min. The chemiluminescence signal value was read using an Envision instrument. (4) Cell viability detection: IC50 was calculated using GraphPad Prism 8 software, and the IC50 of the compounds was obtained using the following nonlinear fitting formula (see Table 1) : 1. Y=Bottom+(Top-Bottom)/(1+10^((LogIC50-X)*HillSlope)) 2. […] Table 1 Antiproliferative activity of test compounds on SK-BR-3

One may read the IC50 as the concentration that inhibits the measured activity by half. Lower therefore signals greater potency in that assay. For the compound `CC[C@@]1(O)C(=O)OCc2c1cc1n(c2=O)Cc2c-1nc1cc(F)c(OC(F)F)c3c1c2C(NC(=O)C[C@@H](C)O)CC3` (stereo partly drawn) [5-2, (R)-N-((1R,9S)-4-(difluoromethoxy)-9-ethyl-5-fluoro-9-hydroxy-10,13-dioxo-2,3,9,10,13,15-hexahydro-1H,12H-benzo[de]pyrano[3',4',6,7]indolizino[1,2-b]quinolin-1-yl)-3-hydroxybutanamide], the IC50 in the assay with MDA-MB-468 stood at 9.4 nM; with NCI-N87, 18 nM; with SK-BR-3 it was 20 nM.
The matching figures for `CC[C@@]1(O)C(=O)OCc2c1cc1n(c2=O)Cc2c-1nc1cc(F)c(C)c3c1c2C(NC(=O)C[C@@H](C)O)CCC3` (stereo partly drawn) [6-1, (R)-N-((1S,10S)-10-ethyl-6-fluoro-10-hydroxy-5-methyl-11,14-dioxo-1,2,3,4,10,11,14,16-octahydro-13H-cyclohepta[3',4',6,7]indolizino[1,2-b]quinolin-1-yl)-3-hydroxybutanamide]: 8.8 nM, 7.5 nM and 11 nM.
On the same counts, the results for `C=Cc1c(F)cc2nc3c(c4c2c1CCC4NC(=O)C[C@@H](C)O)Cn1c-3cc2c(c1=O)COC(=O)[C@]2(O)CC` (stereo partly drawn) [7-2, (R)-N-((1R,9S)-9-ethyl-5-fluoro-9-hydroxy-10,13-dioxo-4-vinyl-2,3,9,10,13,15-hexahydro-1H,12H-benzo[de]pyrano[3',4',6,7]indolizino[1,2-b]quinolin-1-yl)-3-hydroxybutanamide] are 4.4 nM, 4.9 nM and 7.6 nM.
With `CC[C@@]1(O)C(=O)OCc2c1cc1n(c2=O)Cc2c-1nc1cc(F)c(OCC(F)(F)F)c3c1c2C(NC(=O)C[C@@H](C)O)CC3` (stereo partly drawn) [8-1, (R)-N-((1S,9S)-9-ethyl-5-fluoro-9-hydroxy-10,13-dioxo-4-(2,2,2-trifluoroethoxy)-2,3,9,10,13,15-hexahydro-1H,12H-benzo[de]pyrano[3',4',6,7]indolizino[1,2-b]quinolin-1-yl)-3-hydroxybutanamide], the IC50 with MDA-MB-468 stood at 13 nM; with NCI-N87 it was 4.2 nM; in the assay on SK-BR-3, 44 nM.
With `CC[C@@]1(O)C(=O)OCc2c1cc1n(c2=O)Cc2c-1nc1cc(F)c(C)c3c1c2[C@H](NC(=O)C[C@@H](C)O)CCO3` [24-1, (R)-N-((1R,10S)-10-ethyl-6-fluoro-10-hydroxy-5-methyl-11,14-dioxo-2,3,10,11,14,16-hexahydro-1H,13H-oxepino[4,3,2-de]pyrano[3',4':6,7]indolizino[1,2-b]quinolin-1-yl)-3-hydroxybutanamide], the IC50 with MDA-MB-468 (Homo sapiens, MDA-MB-468, 72 h) is 38 nM; in the assay on NCI-N87 (Homo sapiens, NCI-N87, 72 h), 65 nM; in the assay with SK-BR-3 (Homo sapiens, SK-BR-3, 72 h) it was 47 nM.
For `CC[C@@]1(O)C(=O)OCc2c1cc1n(c2=O)Cc2c-1nc1cc(F)c(C)c3c1c2[C@@H](NC(=O)C[C@@H](C)O)CCO3` [24-2, (R)-N-((1S,10S)-10-ethyl-6-fluoro-10-hydroxy-5-methyl-11,14-dioxo-2,3,10,11,14,16-hexahydro-1H,13H-oxepino[4,3,2-de]pyrano[3',4':6,7]indolizino[1,2-b]quinolin-1-yl)-3-hydroxybutanamide], the IC50 in the assay on MDA-MB-468 (Homo sapiens, MDA-MB-468, 72 h) came out at 14 nM; with NCI-N87 (Homo sapiens, NCI-N87, 72 h), 24 nM; in the assay on SK-BR-3 (Homo sapiens, SK-BR-3, 72 h), 16 nM.
The matching figures for `CC[C@@]1(O)C(=O)OCc2c1cc1n(c2=O)Cc2c-1nc1cc(F)c(C)c3c1c2[C@@H](NC(=O)[C@H](O)C1CC1)CCO3` [35-1, (R)-2-cyclopropyl-N-((1S,10S)-10-ethyl-6-fluoro-10-hydroxy-5-methyl-11,14-dioxo-2,3,10,11,14,16-hexahydro-1H,13H-oxepino[4,3,2-de]pyrano[3',4':6,7]indolizino[1,2-b]quinolin-1-yl)-2-hydroxyacetamide]: 12 nM, 14 nM and 16 nM.
In the case of `CC[C@@]1(O)C(=O)OCc2c1cc1n(c2=O)Cc2c-1nc1cc(F)c(C)c3c1c2[C@@H](NC(=O)[C@@H](O)C1CC1)CCO3` [35-2, (S)-2-cyclopropyl-N-((1S,10S)-10-ethyl-6-fluoro-10-hydroxy-5-methyl-11,14-dioxo-2,3,10,11,14,16-hexahydro-1H,13H-oxepino[4,3,2-de]pyrano[3',4':6,7]indolizino[1,2-b]quinolin-1-yl)-2-hydroxyacetamide], the IC50 with MDA-MB-468 (Homo sapiens, MDA-MB-468, 72 h) was found to be 9 nM; in the assay with NCI-N87 (Homo sapiens, NCI-N87, 72 h) it was 10 nM; in the assay with SK-BR-3 (Homo sapiens, SK-BR-3, 72 h) it was 9 nM.
As for `CC[C@@H](O)CC(=O)N[C@H]1CCCc2c(C)c(F)cc3nc4c(c1c23)Cn1c-4cc2c(c1=O)COC(=O)[C@]2(O)CC` [36-1, (R)-N-((1S,10S)-10-ethyl-6-fluoro-10-hydroxy-5-methyl-11,14-dioxo-1,2,3,4,10,11,14,16-octahydro-13H-cyclohepta[3',4':6,7]indolizino[1,2-b]quinolin-1-yl)-3-hydroxypentanamide], the half-inhibitory concentration (IC50) turned out to be 14 nM in the assay with MDA-MB-468, 8.5 nM in the assay on NCI-N87 and 9.2 nM in the assay on SK-BR-3.
On to `CC[C@H](O)CC(=O)N[C@H]1CCCc2c(C)c(F)cc3nc4c(c1c23)Cn1c-4cc2c(c1=O)COC(=O)[C@]2(O)CC` [36-2, (S)-N-((1S,10S)-10-ethyl-6-fluoro-10-hydroxy-5-methyl-11,14-dioxo-1,2,3,4,10,11,14,16-octahydro-13H-cyclohepta[3',4':6,7]indolizino[1,2-b]quinolin-1-yl)-3-hydroxypentanamide], for which the IC50 in the assay with MDA-MB-468 was 6.4 nM; in the assay with NCI-N87, 3.9 nM; in the assay on SK-BR-3, 4.4 nM.
On the same counts, the results for `CC[C@@]1(O)C(=O)OCc2c1cc1n(c2=O)Cc2c-1nc1cc(F)c(C)c3c1c2[C@@H](NC(=O)C[C@@H](O)C(C)C)CCC3` [37-2, (R)-N-((1S,10S)-10-ethyl-6-fluoro-10-hydroxy-5-methyl-11,14-dioxo-1,2,3,4,10,11,14,16-octahydro-13H-cyclohepta[3',4':6,7]indolizino[1,2-b]quinolin-1-yl)-3-hydroxy-4-methylpentanamide] are 6.6 nM, 3.2 nM and 6.6 nM.
On the same counts, the results for “(R)-2-cyclopropyl-N-((1S,10S)-5-cyclopropyl-10-ethyl-6-fluoro-10-hydroxy-11,14-dioxo-1,2,3,4,10,11,14,16-octahydro-13H-cyclohepta[3',4':6,7]indolizino[1,2-b]quinolin-1-yl)-2-hydroxyacetamide [33-1]” are 6 nM, 8 nM and 7.8 nM.
The matching figures for “(R)-3-cyclopropyl-N-((1S,10S)-10-ethyl-6-fluoro-10-hydroxy-5-methyl-11,14-dioxo-1,2,3,4,10,11,14,16-octahydro-13H-cyclohepta[3',4':6,7]indolizino[1,2-b]quinolin-1-yl)-3-hydroxypropanamide [38-1]”: 13 nM, 7.5 nM and 12 nM.
Take “(S)-2-cyclopropyl-N-((1S,10S)-5-cyclopropyl-10-ethyl-6-fluoro-10-hydroxy-11,14-dioxo-1,2,3,4,10,11,14,16-octahydro-13H-cyclohepta[3',4':6,7]indolizino[1,2-b]quinolin-1-yl)-2-hydroxyacetamide [33-2]”: the IC50 was determined as 5 nM with MDA-MB-468, 9 nM in the assay on NCI-N87 and 8.4 nM with SK-BR-3.
For the compound “(S)-3-cyclopropyl-N-((1S,9S)-4-cyclopropyl-9-ethyl-5-fluoro-9-hydroxy-10,13-dioxo-2,3,9,10,13,15-hexahydro-1H,12H-benzo[d]pyrano[3',4':6,7]indolizino[1,2-b]quinolin-1-yl)-3-hydroxypropanamide [34-1]”, the 50% inhibitory concentration (IC50) in the assay on MDA-MB-468 is 4 nM; with NCI-N87, 6 nM; in the assay with SK-BR-3 it was 5.1 nM.
